Laboratory results reported in US20080254993A1, “Use of abscisic acid analogs to enhance growth control” (priority 2007, published 2008).

Legend:
[1] = tested on: Kentucky bluegrass; assay: Greenhouse study on Kentucky bluegrass: turfgrass height, clip weight, turfgrass quality (Example 1); assay type: in vivo
Method: Greenhouse studies were conducted at the Research Farm of Valent BioSciences Corporation (Long Grove, Ill.). Grasses were grown in pots (18 cm in diameter and 18 cm in height) filled with Promix BX (available from Premier Horticulture Inc. Quakertown, Pa.). Grass was irrigated daily by an overhead irrigation system. The irrigation system was set up with multiple Tornado Mist Spray Heads (10 GPH at 40 PSI-Wetted diameter, NDS/Raindrip, Woodland Hills, Calif.). Spray heads were 1-meter apart from each other and 75 cm above grass canopy. Grass was cut with a scissor at 2.5 cm height and fertilizer (1 g/L all purpose fertilizer 20-20-20, available from The Scotts Company, Marysville, Ohio) was applied once per week.
(§1) Chemical solutions were prepared with distilled water. Tween 20 (0.05% v/v) was used as the surfactant when necessary. Trinexapac-ethyl (commercial product Primo Maxx, 11.3% active ingredient) was purchased from Syngenta Crop Protection Inc. (Greensboro, N.C.). ABA analogs, 8′ acetylene-ABA, acid (PBI-524), 8′ acetylene-ABA, ester (PBI-429), 8′ cyclopropane ester (PBI-696), or Tetralone, first carbon tail acetylene, ester (PBI-702), were obtained from Plant Biotechnology Institute, National Research Council of Canada (Saskatoon, Saskatchewan, Canada).
(§2) Chemical solutions were foliar applied to the turfgrass canopy at the rate of 4-gallons/1000 square foot (or 0.163 L/m^−2) immediately after finishing the preparation of solutions. After treatment, turfgrasses were arranged in a randomized complete block experimental design. Turfgrass quality, turfgrass height or clip fresh weight was measured on assigned dates. Turfgrass quality was visually rated on a 0-9 scale based on the color, uniformity, and density of the grass with 0 as the worst and 9 as the best. Turfgrass height was measured as the distance between canopy surface and soil. Clippings were collected form each plot; all plots were cut to a uniform height.
(§3) All experiments were randomized complete block experimental design. Data were analyzed by analysis of variance. Duncan's new multiple range tests at α=0.05 were used for mean separations.
Kentucky bluegrass sod was purchased from Deak sod farms, Inc. (Union Grove, Wis.). Grass was grown in the greenhouse for 94 days for establishment. Turfgrass was treated with one time foliar application of 50 ppm PBI-524, PBI-429, PBI-696 or PBI-702 alone or in combination with 250 ppm trinexapac-ethyl. The turfgrass was cut every 7 days. Turfgrass quality, turfgrass height, and clip weight were measured on days 7 and 35 after treatment.

[2] = tested on: creeping bentgrass; assay: Golf course green field study on creeping bentgrass with PBI-429: turfgrass height, soil moisture, turf quality (Example 2); assay type: in vivo, Penncross creeping bentgrass; settings: for Soil moisture / Turfgrass height / Turf quality: 25 ppm trinexapac-ethyl alone; for Turfgrass height (in words) / Soil moisture (in words): trinexapac-ethyl 25 ppm, PBI-429 50 ppm, alone or combined; for Turf quality: visual 0-9 scale, 9 best
Method: Field studies were conducted at the nursery green or the practice green at Countryside golf course (Mundelein, Ill.). Both greens were sand based and growing Penncross creeping bentgrass. Grass was managed with typical Illinois golf course management practices.
as §1, §2, §3
Trinexapac-ethyl (25 ppm) or PBI-429 (50 ppm) were one time foliar applied alone or in combination to creeping bentgrass in the golf course green to investigate their effect on turfgrass quality, growth inhibition and soil moisture.

[3] = tested on: tomato; assay: Tomato plant height, growth rate and leaf number, greenhouse (Example 5); assay type: in vivo, Tomato (variety: Rutgers)
Description: The effect of ABA analog (PBI-429) and trinexapac-ethyl combinations on transpiration and growth inhibition of dicotyledonous (tomato) was also examined in the greenhouse condition. Tomato (variety: Rutgers) seeds were sown in 18-cell flat filled with Promix PGX (available from Premier Horticulture Inc. Quakertown, Pa.) and grown for 3 weeks to allow for germination and initial growth. Plants were then transplanted into pots (18 cm in diameter and 18 cm in height), filled with Promix BX (available from Premier Horticulture Inc. Quakertown, Pa.), and grown for one week before the chemical treatment. Plants received daily irrigation and weekly fertilizer (1 g/L all purpose fertilizer 20-20-20, available from The Scotts Company, Marysville, Ohio). During the chemical treatment, a 24 mL (4 mL/plant) solution was foliar sprayed on the tomato canopy. Leaf transpiration rates were measured using a LI-1600 Steady State Porometer (LI-Cor, Lincoln, Nebr.) at 3, 5, 7, 10, and 14 days after treatment. The leaf transpiration rate was normalized to the percentage of control plant to minimize the experimental errors caused by environmental factors. Plant height was measured at 0, 3, 5, 7, 10 and 14 days after treatment. The growth rate was calculated based on the changes of plant height in certain intervals. The plants were harvested and the leaf number was counted at 14 days after treatment.

[4] = 7 days after treatment, 250 ppm trinexapac-ethyl alone
[5] = 35 days after treatment, 250 ppm trinexapac-ethyl alone
[6] = 250 ppm trinexapac-ethyl, 3 days after treatment
[7] = 250 ppm trinexapac-ethyl, 5 days after treatment
[8] = 250 ppm trinexapac-ethyl, 7 days after treatment
[9] = 250 ppm trinexapac-ethyl, 10 days after treatment
[10] = 250 ppm trinexapac-ethyl, 14 days after treatment
[11] = 500 ppm trinexapac-ethyl, 3 days after treatment
[12] = 500 ppm trinexapac-ethyl, 5 days after treatment
[13] = 500 ppm trinexapac-ethyl, 7 days after treatment
[14] = 500 ppm trinexapac-ethyl, 10 days after treatment
[15] = 500 ppm trinexapac-ethyl, 14 days after treatment
[16] = 1000 ppm trinexapac-ethyl, 3 days after treatment
[17] = 1000 ppm trinexapac-ethyl, 5 days after treatment
[18] = 1000 ppm trinexapac-ethyl, 7 days after treatment
[19] = 1000 ppm trinexapac-ethyl, 10 days after treatment
[20] = 1000 ppm trinexapac-ethyl, 14 days after treatment
[21] = 2000 ppm trinexapac-ethyl, 3 days after treatment
[22] = 2000 ppm trinexapac-ethyl, 5 days after treatment
[23] = 2000 ppm trinexapac-ethyl, 7 days after treatment
[24] = 2000 ppm trinexapac-ethyl, 10 days after treatment
[25] = 2000 ppm trinexapac-ethyl, 14 days after treatment
[26] = PBI-429 25-200 ppm, trinexapac-ethyl 250-2000 ppm, alone or combined

CCOC(=O)C1CC(=O)C(=C(O)C2CC2)C(=O)C1 (stereo not shown) [trinexapac-ethyl, reference compound] was tested, and the “Clip Weight” value [1, 4] was 0.5 g, the Turfgrass height [1, 4] was 6.0 cm and the Turfgrass quality ([1]; 7 days after treatment, 250 ppm trinexapac-ethyl alone, visual 0-9 scale, 9 best) was 6.6. For the same compound, the “Turfgrass height and clip weight compared to the control (in words)” value ([1]; 7 days after treatment, trinexapac-ethyl 250 ppm, PBI-524 or PBI-429 50 ppm, alone or combined) was “reduced turfgrass height and clip weight compared to the control”, the “Clip Weight” value [1, 5] was 1.7 g and the Turfgrass height [1, 5] was 7.2 cm. For the same compound, the Soil moisture ([2]; 4 days after treatment) was 11.2%, the Turfgrass height ([2]; 4 days after treatment) was 7.3 mm and the “Turfgrass height (in words)” value ([2]; 4 days after treatment) was “did not reduce creeping bentgrass height”. For the same compound, the Soil moisture ([2]; 7 days after treatment) was 12.7%, the Turfgrass height ([2]; 7 days after treatment) was 6.5 mm and the Turf quality ([2]; 7 days after treatment) was 7.3. The “Soil moisture (in words)” value ([2]; 7 days after treatment) was “increase soil moisture”, the “Turfgrass height (in words)” value ([2]; 7 days after treatment) was “reduced turfgrass height similarly” and the Soil moisture ([2]; 38 days after treatment) was 12.4%. For the same compound, the Turfgrass height ([2]; 38 days after treatment) was 6.0 mm, the Turf quality ([2]; 38 days after treatment) was 7.6 and the “Soil moisture (in words)” value ([2]; 38 days after treatment) was “no longer effective”. The “Turfgrass height (in words)” value ([2]; 38 days after treatment) was “no longer effective”, the Plant height ([3]; 250 ppm trinexapac-ethyl, 0 days after treatment) was 6.4 cm and the Growth rate [3, 6] was 1.2 cm/day. It also gave a Plant height [3, 6] of 9.9 cm, a Growth rate [3, 7] of 1.0 cm/day and a Plant height [3, 7] of 11.9 cm. For the same compound, the Growth rate [3, 8] was 1.6 cm/day, the Plant height [3, 8] was 15.1 cm and the Growth rate [3, 9] was 1.5 cm/day. The Plant height [3, 9] was 19.6 cm, the Growth rate [3, 10] was 1.8 cm/day and the Leaf number [3, 10] was 11.0. For the same compound, the Plant height [3, 10] was 26.9 cm, the Plant height ([3]; 500 ppm trinexapac-ethyl, 0 days after treatment) was 6.5 cm and the Growth rate [3, 11] was 0.9 cm/day. For the same compound, the Plant height [3, 11] was 9.3 cm, the Growth rate [3, 12] was 0.8 cm/day and the Plant height [3, 12] was 10.9 cm. The Growth rate [3, 13] was 1.2 cm/day, the Plant height [3, 13] was 13.3 cm and the Growth rate [3, 14] was 1.4 cm/day. It also gave a Plant height [3, 14] of 17.4 cm, a Growth rate [3, 15] of 1.8 cm/day and a Leaf number [3, 15] of 11.0. It also gave a Plant height [3, 15] of 24.4 cm, a Plant height ([3]; 1000 ppm trinexapac-ethyl, 0 days after treatment) of 6.5 cm and a Growth rate [3, 16] of 0.7 cm/day. For the same compound, the Plant height [3, 16] was 8.9 cm, the Growth rate [3, 17] was 0.7 cm/day and the Plant height [3, 17] was 10.3 cm. The Growth rate [3, 18] was 1.0 cm/day, the Plant height [3, 18] was 12.3 cm and the Growth rate [3, 19] was 1.2 cm/day. The Plant height [3, 19] was 15.8 cm, the Growth rate [3, 20] was 1.8 cm/day and the Leaf number [3, 20] was 11.0. The Plant height [3, 20] was 22.8 cm, the Plant height ([3]; 2000 ppm trinexapac-ethyl, 0 days after treatment) was 6.7 cm and the Growth rate [3, 21] was 0.6 cm/day. For the same compound, the Plant height [3, 21] was 7.9 cm, the Growth rate [3, 22] was 0.6 cm/day and the Plant height [3, 22] was 9.1 cm. The Growth rate [3, 23] was 0.8 cm/day, the Plant height [3, 23] was 10.7 cm and the Growth rate [3, 24] was 1.0 cm/day. It also gave a Plant height [3, 24] of 13.6 cm, a Growth rate [3, 25] of 1.2 cm/day and a Leaf number [3, 25] of 10.8. For the same compound, the Plant height [3, 25] was 18.3 cm, the “Tomato leaf number (in words)” value ([3]; 14 days after treatment, PBI-429 25-200 ppm, trinexapac-ethyl 250-2000 ppm, alone or combined) was “did not change the tomato leaf number” and the “Tomato growth rate in terms of plant height (in words)” value [3, 26] was “inhibited growth rate”. For the same compound, the “Tomato plant height (in words)” value [3, 26] was “decreased tomato plant height”.
